Read-outs that look alike come from different tables or passages of the source. Numbered stars: 1 amine (or outer) side, 2 acyl side, 3 side chain; on linkers, the order of the positions; unused ones are H or OH. Bridge positions count the residues as written; N and C are the ends. Square brackets hold non-standard residues; d marks the D form. Side chains are listed from the residue outwards. Peptide text beside a SMILES is read from it. * marks the point of attachment. Trp(1-CH2COOH) = N[C@@H](Cc1cn(CC(=O)O)c2ccccc12)C(=O)O; CH2CON(CH2CH2)2NCH2COOH = O=C(O)CN1CCN(C(=O)C*)CC1; NMePhe(4-COOH) = CN[C@@H](Cc1ccc(C(=O)O)cc1)C(=O)O; X1 = O=C([C@H](Cc1cccc(C(=O)[*:3])c1)N[*:1])[*:2]; Nle(6-morpholino) = N[C@@H](CCCCN1CCOCC1)C(=O)O; Phe(3-COOH) = N[C@@H](Cc1cccc(C(=O)O)c1)C(=O)O; Trp(7-aza) = N[C@@H](Cc1c[nH]c2ncccc12)C(=O)O; NH(CH2CH2O)8Me = COCCOCCOCCOCCOCCOCCOCCOCCN*; NMePhe(3-Cl) = CN[C@@H](Cc1cccc(Cl)c1)C(=O)O; Piperazinyl(4-CH2COOH) = O=C(O)CN1CCN(*)CC1; 3Pal(6-NH2) = Nc1ccc(C[C@H](N)C(=O)O)cn1; NMeW = CN[C@@H](Cc1c[nH]c2ccccc12)C(=O)O; Lys(N3) = [N-]=[N+]=NCCCC[C@H](N)C(=O)O; NMeY = CN[C@@H](Cc1ccc(O)cc1)C(=O)O; Nva(3-Et) = CCC(CC)[C@H](N)C(=O)O; NMeF = CN[C@@H](Cc1ccccc1)C(=O)O; 4Pal = N[C@@H](Cc1ccncc1)C(=O)O; PEG4 = NCCOCCOCCOCCOCCC(=O)O; Carboxymethyl = O=C(O)C*; CO = O=C([*:1])[*:2]
Biological target: human transferrin receptor (hTfR) (Homo sapiens, UniProt P02786)
Sequence (P02786 whole entry): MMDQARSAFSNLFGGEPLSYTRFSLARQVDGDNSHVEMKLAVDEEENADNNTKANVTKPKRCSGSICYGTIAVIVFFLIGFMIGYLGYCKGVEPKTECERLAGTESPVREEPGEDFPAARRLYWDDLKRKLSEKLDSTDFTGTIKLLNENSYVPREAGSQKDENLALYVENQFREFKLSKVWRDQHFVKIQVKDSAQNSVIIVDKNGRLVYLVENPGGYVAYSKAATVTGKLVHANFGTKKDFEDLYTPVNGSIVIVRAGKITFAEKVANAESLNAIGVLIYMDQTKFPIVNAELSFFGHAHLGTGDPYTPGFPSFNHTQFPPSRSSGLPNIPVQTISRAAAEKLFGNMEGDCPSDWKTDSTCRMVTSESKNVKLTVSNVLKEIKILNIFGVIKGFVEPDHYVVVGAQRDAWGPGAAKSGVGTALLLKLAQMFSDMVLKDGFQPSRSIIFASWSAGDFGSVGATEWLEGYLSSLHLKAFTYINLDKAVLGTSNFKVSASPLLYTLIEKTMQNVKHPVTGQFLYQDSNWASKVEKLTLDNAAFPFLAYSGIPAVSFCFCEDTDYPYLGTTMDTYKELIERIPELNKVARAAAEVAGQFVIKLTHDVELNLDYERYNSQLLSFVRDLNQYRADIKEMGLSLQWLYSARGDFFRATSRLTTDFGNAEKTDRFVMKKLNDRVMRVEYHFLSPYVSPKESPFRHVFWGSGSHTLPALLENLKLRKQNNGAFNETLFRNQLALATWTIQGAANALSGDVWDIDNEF
Experiment: SPR measurement under pH 7.4 conditions (Biacore T200, CM3 chip, hTfR captured by His Tag antibody)
Assay type: binding
Settings: SPR, pH 7.4
Protocol: Molecular interactions between the synthesized peptides and the transferrin receptor (hTfR) were evaluated by surface plasmon resonance (SPR) using the following method. The specific assay procedure is described below.
An CM3 sensor chip (Cytiva) was inserted into BiacoreT200 (Cytiva), then a priming operation was performed three times by using a running buffer: HBS-P+, pH7.4 (Cytiva), and an equilibrium state was created at a flow rate of […]. Ligand immobilization was performed at a flow rate of 10 µL/min. After mixing 50 µL each of 60 mM EDC solution (Cytiva) and 650 mM NHS solution (Cytiva), the mixture was reacted at a flow rate of 10 µL/min for 420 seconds. 150 µL of […] THE His Tag Antibody, mAb, Mouse (GenScript) was prepared by diluting with 10 mM acetic acid solution (pH 5.0), and reacted at a flow rate of 10 µL/ min for 420 seconds. Then, THE His Tag Antibody, mAb, Mouse (GenScript) was immobilized as a capture molecule on the CM3 sensor chip. After immobilization, capping was performed by reacting with 1.0 M ethanolamine solution (Cytiva) at a flow rate of 10 µL/min for 420 seconds. 300 nM hTfR was captured at a flow rate of 10 µL/min, a peptide solution prepared at 10 mM in DMSO was diluted with running buffer to achieve a final concentration of 10 µM, and peptide solutions at 250 nM, 125 nM, 62.5 nM, 25 nM, and 12.5 nM were prepared. . The peptide samples were reacted at a flow late of 30 µL/min for 120 seconds, followed by dissociation for 600 seconds. The kinetics of the peptide against hTfR was obtained by SPR measurement for the above samples.
The kinetic evaluation model was single-cycle kinetics, and curve fitting was performed using Biacore T200 Evaluation Software Version 3.0 (Cytiva). The binding of the peptide to hTfR was evaluated by performing curve fitting on the obtained sensorgram by the least squares method and obtaining the kon value, the koff value, and the KD value.

[1] = Table 2-1-2, read-out: hTfR SPR pH7.4 KD(n M)

Row | SMILES | Kd [1] [nM] | further results
1 | CC[C@H](C)[C@@H]1NC(=O)[C@H](Cc2ccc(OCC(=O)N3CCN(CC(=O)O)CC3)cc2)NC(=O)[C@H](Cc2ccc(N)nc2)NC(=O)[C@H](CC(N)=O)NC(=O)[C@H](Cc2cn(CC(=O)O)c3ccccc23)NC(=O)[C@H](C(C)C)NC(=O)[C@H](Cc2cccc(Cl)c2)N(C)C(=O)[C@H](C(C)C)NC(=O)[C@H](C)NC(=O)CSC[C@@H](C(=O)NCCOCCOCCOCCOCCC(N)=O)NC(=O)[C@H](Cc2ccc(O)cc2)N(C)C(=O)[C@H](Cc2ccncc2)NC(=O)[C@H](CCCNC(=N)N)NC(=O)[C@H](CCC(=O)NCCOCCOCCOCCOCCOCCOCCOCCOC)NC(=O)[C@H]([C@@H](C)CC)NC1=O [compound 160] | 20.8 | 
2 | CC[C@H](C)[C@@H]1NC(=O)[C@H](Cc2ccc(OCC(=O)N3CCN(CC(=O)O)CC3)cc2)NC(=O)[C@H](Cc2ccc(N)nc2)NC(=O)[C@H](CC(N)=O)NC(=O)[C@H](Cc2c[nH]c3ncccc23)NC(=O)[C@H](C(C)C)NC(=O)[C@H](Cc2cccc(Cl)c2)N(C)C(=O)[C@H](C(C)C)NC(=O)[C@H](C)NC(=O)CSC[C@@H](C(=O)NCCOCCOCCOCCOCCC(N)=O)NC(=O)[C@H](Cc2ccc(O)cc2)N(C)C(=O)[C@H](Cc2ccncc2)NC(=O)[C@H](CCCCN2CCOCC2)NC(=O)[C@H](CCCCNC(=O)N2CCN(CC(=O)O)CC2)NC(=O)[C@H]([C@@H](C)CC)NC1=O [compound 157] ({CH2CO}-AV[NMePhe(3-Cl)]V[Trp(7-aza)]N[3Pal(6-NH2)]Y(CH2CON(CH2CH2)2NCH2COOH)IIK([CO-Piperazinyl(4-CH2COOH)])[Nle(6-morpholino)][4Pal][NMeY]C[PEG4]-NH2; thioether N-15) | 15 | 
3 | CC[C@H](C)[C@@H]1NC(=O)[C@H](Cc2ccc(OCC(=O)N3CCN(CC(=O)O)CC3)cc2)NC(=O)[C@H](Cc2ccc(N)nc2)NC(=O)[C@H](CC(N)=O)NC(=O)[C@H](Cc2c[nH]c3ncccc23)NC(=O)[C@H](C(C)C)NC(=O)[C@H](Cc2cccc(Cl)c2)N(C)C(=O)[C@H](C(C)C)NC(=O)[C@H](C)NC(=O)CSC[C@@H](C(=O)NCCOCCOCCOCCOCCC(N)=O)NC(=O)[C@H](Cc2ccc(O)cc2)N(C)C(=O)[C@H](Cc2ccncc2)NC(=O)[C@H](CCCNC(=N)N)NC(=O)[C@H](CCCCNC(=O)N2CCN(CC(=O)O)CC2)NC(=O)[C@H]([C@@H](C)CC)NC1=O [compound 156] ({CH2CO}-AV[NMePhe(3-Cl)]V[Trp(7-aza)]N[3Pal(6-NH2)]Y(CH2CON(CH2CH2)2NCH2COOH)IIK([CO-Piperazinyl(4-CH2COOH)])R[4Pal][NMeY]C[PEG4]-NH2; thioether N-15) | 16 | 
4 | CC[C@H](C)[C@@H]1NC(=O)[C@H](Cc2ccc(OCC(=O)N3CCN(CC(=O)O)CC3)cc2)NC(=O)[C@H](Cc2ccc(N)nc2)NC(=O)[C@H](CC(N)=O)NC(=O)[C@H](Cc2cn(CC(=O)O)c3ccccc23)NC(=O)[C@H](C(C)C)NC(=O)[C@H](Cc2cccc(Cl)c2)N(C)C(=O)[C@H](C(C)C)NC(=O)[C@H](C)NC(=O)CSC[C@@H](C(=O)NCCOCCOCCOCCOCCC(N)=O)NC(=O)[C@H](Cc2ccc(O)cc2)N(C)C(=O)[C@H](Cc2ccncc2)NC(=O)[C@H](CCCCN2CCOCC2)NC(=O)[C@H](CCC(=O)NCCOCCOCCOCCOCCOCCOCCOCCOC)NC(=O)[C@H]([C@@H](C)CC)NC1=O [compound 155] ({CH2CO}-AV[NMePhe(3-Cl)]V[Trp(1-CH2COOH)]N[3Pal(6-NH2)]Y(CH2CON(CH2CH2)2NCH2COOH)IIE(NH(CH2CH2O)8Me)[Nle(6-morpholino)][4Pal][NMeY]C[PEG4]-NH2; thioether N-15) | 28.4 | 
5 | CC[C@H](C)[C@@H]1NC(=O)[C@H](Cc2ccc(OC)cc2)NC(=O)[C@H](Cc2ccc(N)nc2)NC(=O)[C@H](CC(N)=O)NC(=O)[C@H](Cc2cnc3ccccn23)NC(=O)[C@H](C(C)C)NC(=O)[C@H](Cc2cccc(Cl)c2)N(C)C(=O)[C@H](C(C)C)NC(=O)[C@H](C)NC(=O)CSC[C@@H](C(=O)NCC(=O)N[C@H](CCC(=O)O)C(=O)N[C@H](CCC(=O)O)C(=O)N[C@H](CCC(=O)O)C(=O)N[C@H](CO)C(=O)N[C@H](CO)C(=O)N[C@@H](CCCCN=[N+]=[N-])C(N)=O)NC(=O)[C@H](Cc2ccc(C(=O)O)cc2)N(C)C(=O)[C@H](Cc2ccncc2)NC(=O)[C@H](CCCNC(=N)N)NC(=O)[C@H](CCCNC(=N)N)NC(=O)[C@H]([C@@H](C)CC)NC1=O [compound 200] |  | Kd (Table 2-2, read-out: hTfR SPR pH7.4 KD): 81.6 nM
6 | CCC(CC)[C@@H]1NC(=O)[C@H](Cc2ccc(OCC(=O)O)cc2)NC(=O)[C@H](Cc2ccc(N)nc2)NC(=O)[C@H](CC(N)=O)NC(=O)[C@H](Cc2c[nH]c3ncccc23)NC(=O)[C@H](C(C)C)NC(=O)[C@H](Cc2cccc(Cl)c2)N(C)C(=O)[C@H](C(C)C)NC(=O)[C@H](C)NC(=O)CSC[C@@H](C(=O)NCCOCCOCCOCCOCCC(N)=O)NC(=O)[C@H](Cc2ccc(C(=O)O)cc2)N(C)C(=O)[C@H](Cc2cccc(C(=O)O)c2)NC(=O)[C@H](CCCNC(=N)N)NC(=O)[C@H](CCC(=O)NCCOCCOCCOCCOCCOCCOCCOCCOC)NC(=O)[C@H]([C@@H](C)CC)NC1=O [compound 161] ({CH2CO}-AV[NMePhe(3-Cl)]V[Trp(7-aza)]N[3Pal(6-NH2)]Y(Carboxymethyl)[Nva(3-Et)]IE(NH(CH2CH2O)8Me)R[Phe(3-COOH)][NMePhe(4-COOH)]C[PEG4]-NH2; thioether N-15) | 12200 | 
7 | CCC(CC)[C@@H]1NC(=O)[C@H](Cc2ccc(O)cc2)NC(=O)[C@H](Cc2ccc(O)cc2)NC(=O)[C@H](CC(N)=O)NC(=O)[C@H](Cc2c[nH]c3ccccc23)N(C)C(=O)[C@H](C(C)C)NC(=O)[C@H](Cc2ccccc2)N(C)C(=O)[C@H](C(C)C)NC(=O)[C@H](C)NC(=O)CSC[C@@H](C(=O)NCC(=O)N[C@@H](CCCCN=[N+]=[N-])C(N)=O)NC(=O)[C@H](Cc2ccc(O)cc2)N(C)C(=O)[C@H](Cc2cccc(C(=O)NCCOCCOCCOCCOCCC(=O)O)c2)NC(=O)[C@H](CCCNC(=N)N)NC(=O)[C@H](CCCCN)NC(=O)[C@H]([C@@H](C)CC)NC1=O [compound 195] ({CH2CO}-AV[NMeF]V[NMeW]NYY[Nva(3-Et)]IKR[X1](PEG4)[NMeY]CG[Lys(N3)]-NH2; thioether N-15) |  | Kd (Table 1-3-2-2, read-out: hTfR SPR pH7.4 KD): 5.77 nM
